SMILES strings stand for the structures.

In data set [1] the test system is MMTV promoter luciferase reporter in HeLa cell line (GR transcription activation). The experiment in a line: MMTV transcription activation activity, luciferase reporter gene screening system (MMTV_GR transcription activation experiment). Particulars: Homo sapiens; for Emax: HeLa, maximum effect value, positive control 1000 nM dexamethasone, read-out: TA (MMTV transcription activation activity) Effect; for EC50: absolute EC50, HeLa MMTV-luciferase cells, 18 h, max concentration 1000 nM, read-out: TA (MMTV transcription activation activity) EC50. It is filed as cell-based. The source says: The promoter of mouse mammary tumor virus (MMTV) contains specific binding sites for activating GRs (GREs). To determine the activity of the compounds, a reporter gene (luciferase) was inserted after the MMTV promoter, and this construct was expressed in a stable manner in the genome of the HeLa cell line. MMTV promoter was activated by the test compounds to induce the expression of luciferase, and its activity was detected by luminescence measurement.
• [0442] 1) All the culture media were carefully aspirated, the cell layer was rinsed gently with an appropriate amount of DPBS, and then aspirated. • [0443] 2) An appropriate amount of 0.05% Typsine EDTA was added and incubated in a CO2 incubator for 3-5 minutes to digest the cells. • [0444] 3) The cells were resuspended with an appropriate amount of cell culture medium. • [0445] 4) The amount of cells required was calculated, and the cell concentration was 4×10^3 cells/well. • [0446] 5) The cell suspension was diluted with appropriate cell culture medium. • [0447] 6) Cell suspension was dispensed into a disposable sterile loading slot. • [0448] 7) Inoculated 30 µL per well into a 384-well plate. • [0449] 8) The cell plate was placed in a 37° C. 5% CO2 incubator for 18-24 hours.
Compounds were diluted with DMSO to 1 mM, 0.25 mM, 0.0625 mM, 0.015625 mM, 0.0039 mM, 0.0009765 mM, 0.000244 mM, 0.000061 mM, 0.00001526 mM and 0.0000038125 mM, then diluted 25-fold with serum culture medium treated with activated carbon, and finally 4x concentration compound experimental plate was obtained, prepared before use.
The final DMSO experimental concentration was 0.1%.
MMTV_GR transcription activation activity experiment • [0458] 1) Inoculated cells: Fresh cells were inoculated into 384 white transparent bottom experimental plates at 4×10^3 cells/30 µL/well, and incubated at 37° C. 5% CO2 incubator for 24 hours. • [0459] 2) Compound preparation: The compound plate was prepared before the experiment, and the reference compound (dexamethasone) and the test compound of 4x concentration were prepared. Finally, the experimental plate of 4x concentration compound was obtained. • [0460] 3) Added compound: 10 µL of 4x compound was transferred with Bravo and added to cell plate. Incubated for 18 hours in a 37° C. 5% CO2 incubator. • [0461] 4) 30 µL of Bright-Glo fluorescent detection reagent was transferred to the cell plate. • [0462] 5) Centrifugal incubation for 2 minutes. • [0463] 6) The fluorescence value was measured with the Envision plate reader.
Positive control: 1000 nM dexamethasone (0.1% DMSO)
Negative control: 0.1% DMSO
Test compound: Maximum concentration of 1000 nM, 4-fold dilution, 10 wells in total, repeated.
Dexamethasone: Maximum concentration of 1000 nM, 4-fold dilution, 10 wells in total, repeated.
The graphing software GraphPad Prism5 was used to create the concentration curves of the tested compounds and calculate the IC50 values.
(In general: A reporter such as luciferase makes a cellular process visible.)

The nature of data set [2]: In vivo pharmacokinetic properties study in male SD rats. Particulars: rat, plasma, iv 2 mg/kg; for half-life: read-out: T½ (converted); for Vd: read-out: Vdss. How it is done: Experimental purpose: The purpose of this study was to determine the pharmacokinetic parameters of compounds in male SD rats.
Experimental methods: In this project, two male SD rats were intravenously administered with a dose of 2 mg/kg and a concentration of 0.4 mg/mL. Plasma samples were collected at 0 h (before administration) and 0.0833, 0.25, 0.5, 1, 2, 4, 6, 8, 24 h after administration. Then the collected samples were analyzed by LC-MS/MS and the data were collected. The collected analytical data were used to calculate the relevant pharmacokinetic parameters using Phoenix WinNonlin 6.3 software.

Another data set deals with T1, CYP3A4 (Homo sapiens, UniProt P08684).
T1 construct: incubation system containing human liver microsomes, probe substrates, and co-factors; tissue Corning Inc. or other suppliers; host or cells: mixed (pooled) human liver microsomes
The experiment in a line: Human liver microsomal CYP repression experiment. It is filed as in vitro ADME. The procedure: The purpose of the research project was to evaluate the repression of the test sample on human liver microsomal cytochrome P450 isoenzyme (CYP3A4) using a 5-in-1 probe substrate of CYP isoenzyme.
Mixed human liver microsomes (HLM) were purchased from Corning Inc. (Steuben, New York, USA) or other suppliers and stored at temperatures below -70° C. before use.
The diluted series concentration of the test sample was added to the incubation system containing human liver microsomes, probe substrates, and co-factors of the circulating system, and the control without the test sample but with solvent was used as the enzyme activity control (100%). The concentration of metabolites produced by the probe substrate in the sample was determined by liquid chromatography-tandem mass spectrometry (LC-MS/MS). Non-linear regression analysis of the mean percent activity of the test sample versus concentration was performed using SigmaPlot (V. 11). The IC50 values were calculated by a three- or four-parameter inverse logarithmic equation.
In general terms: Microsomes from liver hold many membrane-bound enzymes, among them those of drug oxidation.

T1 sequence (P08684 whole entry): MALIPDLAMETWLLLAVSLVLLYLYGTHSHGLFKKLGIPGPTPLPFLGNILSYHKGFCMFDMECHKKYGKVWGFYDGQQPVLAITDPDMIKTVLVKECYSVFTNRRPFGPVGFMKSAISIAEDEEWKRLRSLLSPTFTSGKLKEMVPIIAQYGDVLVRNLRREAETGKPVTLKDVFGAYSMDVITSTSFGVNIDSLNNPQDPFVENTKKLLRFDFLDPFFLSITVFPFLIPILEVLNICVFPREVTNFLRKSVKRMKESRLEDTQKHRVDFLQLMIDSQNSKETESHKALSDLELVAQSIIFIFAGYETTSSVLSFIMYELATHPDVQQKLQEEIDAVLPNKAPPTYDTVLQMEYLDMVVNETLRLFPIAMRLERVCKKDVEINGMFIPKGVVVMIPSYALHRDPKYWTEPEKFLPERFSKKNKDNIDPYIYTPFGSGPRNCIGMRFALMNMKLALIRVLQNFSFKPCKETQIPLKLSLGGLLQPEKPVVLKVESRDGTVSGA

Turning to `C[C@H](NC(=O)C(C)(F)F)[C@H](Oc1ccc2c(cnn2-c2ccc3nnnn3c2)c1)c1cc(F)cc(F)c1` [WX035], in data set [1], the Emax came to 82.5% and the EC50 was determined as 5.59 nM.
Consider `C[C@H](NC(=O)C(C)(F)F)[C@H](Oc1ccc2c(cnn2-c2cn(C)nn2)c1)c1cc(F)cc(F)c1` [WX051], for which, in data set [2], the clearance is 9.29 mL/min/kg, the half-life was 3.54 h and the Vd turned out to be 2.61 L/kg. Further, in data set [1], the Emax is 70.8% and the EC50 came out at 4.93 nM.
For `CC(C)[C@H](NC(=O)C(C)(F)F)[C@H](Oc1ccc2c(cnn2-c2ccc3nncn3c2)c1)c1cc(F)cc(F)c1` [WX017], in data set [1], the Emax amounted to 81.3% and the 50% effective concentration (EC50) came to 2.56 nM.
For `CC(C)[C@H](NC(=O)C(C)(F)F)[C@H](Oc1ccc2c(cnn2-c2ccc3nccn3c2)c1)c1ccccc1` [WX004], in that order: 63.7% and 5.86 nM.
Regarding `C[C@H](NC(=O)C(C)(F)F)[C@H](Oc1ccc2c(cnn2-c2ccc3nccn3c2)c1)c1cc(F)cc(F)c1` [WX003], in data set [1], the Emax was 91.4% and the EC50 was 0.229 nM.
Take `C[C@H](NC(=O)C(C)(F)F)[C@H](Oc1ccc2c(cnn2-c2ccc3nncn3c2)c1)c1cc(F)cc(F)c1` [WX019]: in data set [2], the clearance was found to be 9.74 mL/min/kg, the half-life was 3 h and the Vd is 1.28 L/kg. Moreover, in data set [1], the Emax came to 75.2% and the EC50 came to 0.94 nM. In addition, the “repression on CYP3A4 (in words)” value at CYP3A4 (conclusion on Table 3) was “significantly improve the repression of CYP3A4”. The molecule further yielded an IC50 against CYP3A4 (mixed human liver microsomes, 5-in-1 probe substrate) of 9120 nM.
For the molecule `CC(C)[C@H](NC(=O)C(C)(F)F)[C@H](Oc1ccc2c(cnn2-c2ccc3nncn3c2)c1)c1ccccc1` [WX018], in data set [1], the Emax amounted to 69.4% and the EC50 was found to be 12.3 nM.
Taken in the same sequence, the figures for `C[C@H](NC(=O)C(C)(F)F)[C@H](Oc1ccc2c(cnn2-c2cnn(C)c2)c1)c1ccccc1` [WX043] were 72.8% and 5.03 nM.
For `C[C@H](NC(=O)C(C)(F)F)[C@H](Oc1ccc2c(cnn2-c2ccc3ncnn3c2)c1)c1cc(F)cc(F)c1` [WX034], in that order: 89.2% and 3.2 nM.
Taken in the same sequence, the figures for `C[C@H](NC(=O)C(C)(F)F)[C@H](Oc1ccc2c(cnn2-c2ccc3c(c2)CCCO3)c1)c1cc(F)cc(F)c1` [WX002] were 76% and 2.07 nM.

In general, EC50 refers to the concentration that produces a half-maximal response. Broadly, the clearance is the volume of plasma or blood freed of the substance per unit of time. A lower clearance goes with a low capacity for elimination. By IC50 is commonly meant the midpoint of a concentration-inhibition curve.

For the origin of these results see patent publication US20230167068A1, “BENZOPYRAZOLE COMPOUND” (MEDSHINE DISCOVERY INC., priority 2019, published 2023).
